From patent publication EP0095294A1, “Deoxyuridine compounds, methods for preparing them and their use in medicine” (priority 1982, dated 1983)
Counter-ions that a name gives are not always drawn. Like-named read-outs stand apart in the source and are kept apart here.

Assays:
Type in all cases: cell-based
[1] = test system: Herpes simplex type 1 virus (HFEM strain); test: Plaque reduction test in virus-infected Vero cells
Protocol: (§1) Vero (African Green Monkey Kidney) cells were grown to confluence in 24 well multidishes, each well being 1.6cm in diameter. The cells were infected with Herpes simplex type 1 virus (HFEM strain) and overlaid with 0.5ml of 0.9% agarose (w/v) in maintenance medium. Test compounds prepared in maintenance medium in concentrations ranging from 100 to 0.03pg/ml in half-log dilution steps, were added in 0.5ml volume. The virus infected cultures were then incubated at 37° for 4 days before fixing in 4% formaldehyde solution and staining with carbolfuchsin.

in vitro [2] = details: african green monkey; minimum concentration of test compound which caused cytotoxicity; Vero cells, 4 days at 37°; highest concentration tested 100; read-out: MTD
in vitro [3] = details: african green monkey, vero cells
Protocol: as §1

[4] = test system: Vero (African Green Monkey Kidney) cells; test: in vitro; details: minimum concentration of test compound which caused cytotoxicity; Vero cells, 4 days at 37°; highest concentration tested 100
Protocol: as §1

[5] = Human alphaherpesvirus 1, 96 h, concentration causing 50% reduction in number of virus plaques, HSV-1 HFEM strain, 4 days at 37°, molar units, read-out: PDD50 (the source's name)
[6] = Human alphaherpesvirus 1, 96 h, concentration causing 50% reduction in number of virus plaques, HSV-1 HFEM strain, 4 days at 37°, read-out: PDD50 (the source's name)
[7] = Human alphaherpesvirus 1, Vero, 96 h, read-out: PDD50, concentration causing 50% reduction in number of virus plaques, HSV-1 HFEM strain, 4 days at 37°
[8] = Human alphaherpesvirus 1, Vero, 96 h, read-out: PDD50, concentration causing 50% reduction in number of virus plaques, HSV-1 HFEM strain, 4 days at 37°, molar units

Row | Structure (SMILES) | IC50 [1, 5] [nM] | IC50 [1, 6] [µg/mL] | MCC at 96 h (in vitro [2]) [µg/mL] | MCC at 96 h (in vitro [3]) [µg/mL] | MTD [4] [µg/mL] | IC50 [1, 7] [µg/mL] | IC50 [1, 8] [nM]
1 | CCOC(=O)n1c(=O)c(/C=C/Br)cn([C@H]2C[C@H](O)[C@@H](CO)O2)c1=O [Example 7, 5-(E-2-Bromovinyl)-2'-deoxy-3-ethoxycarbonyluridine] | 12300 | 5 | > 100 | – | – | – | –
2 | CCCOC(=O)OC[C@H]1O[C@@H](n2cc(/C=C/Br)c(=O)[nH]c2=O)C[C@@H]1O [Example 14, 5-(E-2-Bromovinyl)-2'-deoxy-5'-0-propoxycarbcnyluridine] | 900 | 0.39 | – | > 100 | – | – | –
3 | O=C(OC[C@H]1O[C@@H](n2cc(/C=C/Br)c(=O)[nH]c2=O)C[C@@H]1O)Oc1ccccc1 [Example 23, 5-(E-2-Bromovinyl)-5'-0-phenoxycarbonyl-2'-deoxyuridine] | 400 | 0.18 | – | > 100 | – | – | –
4 | COC(=O)OC[C@H]1O[C@@H](n2cc(/C=C/Br)c(=O)[nH]c2=O)C[C@@H]1O [Example 3, 5-(E-2-Bromovinyl)-2'-deoxy-5'-O-methoxycarbonyluridine] | 3800 | 1.5 | – | > 100 | – | – | –
5 | O=C(OC[C@H]1O[C@@H](n2cc(/C=C/Br)c(=O)[nH]c2=O)C[C@@H]1O)Oc1ccc([N+](=O)[O-])cc1 [Example 24, 5-(E-2-Bromovinyl)-2'-deoxy-5'-O-(p-nitrophenoxycarbonyl)uridine] | 1200 | 0.6 | – | 100 | – | – | –
6 | CCOC(=O)OC[C@H]1O[C@@H](n2cc(/C=C/Br)c(=O)[nH]c2=O)C[C@@H]1OP(=O)([O-])[O-].[Na+].[Na+] [Example 12, 5-(E-2-Bromovinyl)-2'-deoxy-5'-O-ethoxycarbonyluridine 3'-Phosphate Disodium Salt] | – | – | – | – | >100 | 12 | 23000
7 | CC(C)COC(=O)OC[C@H]1O[C@@H](n2cc(/C=C/Br)c(=O)[nH]c2=O)C[C@@H]1O [Example 17, 5-(E-2-Bromovinyl)-5'-O-isobutoxycarbonyl-2'-deoxyuridine] | 500 | 0.22 | – | > 100 | – | – | –
8 | CCCCC(=O)O[C@H]1C[C@H](n2cc(/C=C/Br)c(=O)n(C(=O)CCCC)c2=O)O[C@@H]1COC(=O)OCC [Example 8, 5-(E-2-Bromovinyl)-2'-deoxy-5'-0-ethoxycarbonyl-3,3'-0-bisvaleryluridine] | 3000 | 1.7 | – | > 100 | – | – | –
9 | CCOC(=O)OC[C@H]1O[C@@H](n2cc(/C=C/Br)c(=O)[nH]c2=O)C[C@@H]1O [Example 5, 5-(E-2-Bromovinyl)-2'-deoxy-5'-0-ethoxycarbonyluridine] | 700 | 0.28 | – | > 100 | – | – | –
10 | CC(C)(C)OC(=O)O[C@H]1C[C@H](n2cc(/C=C/Br)c(=O)[nH]c2=O)O[C@@H]1CO [Example 20, 5-(E-2-Bromovinyl)-3'-O-t-butoxycarbonyl-2^1-deoxyuridine] | 400 | 0.18 | – | > 100 | – | – | –
11 | CCOC(=O)O[C@H]1C[C@H](n2cc(/C=C/Br)c(=O)[nH]c2=O)O[C@@H]1CO [Example 6, 5-(E-2-Bromovinyl)-2'-deoxy-3'-0-ethoxycarbonyluridine] | 1100 | 0.43 | – | > 100 | – | – | –
12 | CCCCC(=O)n1c(=O)c(/C=C/Br)cn([C@H]2C[C@H](O)[C@@H](COC(=O)OCC)O2)c1=O [Example 10, 5-(E-2-Bromovinyl)-2'-deoxy-5'-0-ethoxycarbonyl-3-valeryl-uridine] | 6700 | 3.3 | – | > 100 | – | – | –
13 | C=CCOC(=O)OC[C@H]1O[C@@H](n2cc(/C=C/Br)c(=O)[nH]c2=O)C[C@@H]1O [Example 21, 5'-0-Allyloxycarbonyl-5-(E-2-bromovinyl)-2'-deoxyuridine] | 1700 | 0.72 | – | > 100 | – | – | –
14 | O=C(OCCO)OC[C@H]1O[C@@H](n2cc(/C=C/Br)c(=O)[nH]c2=O)C[C@@H]1O [Example 26, 5-(E-2-Bromovinyl)-2'-deoxy-5'-0-(2-hydroxyethox^ycarbonyl)-uridine] | 1800 | 0.76 | – | > 100 | – | – | –
15 | CCOC(=O)OC[C@H]1O[C@@H](n2cc(/C=C/Br)c(=O)[nH]c2=O)C[C@@H]1OC(=O)CCC(=O)[O-].[Na+] [Sodium Salt] | – | – | > 100 | – | – | – | 12000
16 | CC(C)OC(=O)OC[C@H]1O[C@@H](n2cc(/C=C/Br)c(=O)[nH]c2=O)C[C@@H]1O [Example 25, 5-(E-2-Bromovinyl)-2'-deoxy-5'-0-isopropoxycarbonyluridine] | 2100 | 0.88 | – | > 100 | – | – | –
17 | COC(=O)OC[C@H]1O[C@@H](n2cc(/C=C/Br)c(=O)[nH]c2=O)C[C@@H]1OC(=O)OC [Example 1, 5-(E-2-Bromovinyl)-2'-deoxy-3',5'-bis-0-methoxycarbonyl-uridine] | 11800 | 5.3 | – | > 100 | – | – | –
18 | COC(=O)O[C@H]1C[C@H](n2cc(/C=C/Br)c(=O)[nH]c2=O)O[C@@H]1CO [Example 2, 5-(E-2-Bromovinyl)-2'-deoxy-3'-0-methoxycarbonyluridine] | 1900 | 0.74 | – | > 100 | – | – | –
19 | CC(C)(C)OC(=O)OC[C@H]1O[C@@H](n2cc(/C=C/Br)c(=O)[nH]c2=O)C[C@@H]1O [Example 18, 5-(E-2-Bromovinyl)-5'-O-t-butoxycarbonyl-2'-deoxyuridine] | 700 | 0.28 | – | > 100 | – | – | –
20 | O=C(OCc1ccccc1)OC[C@H]1O[C@@H](n2cc(/C=C/Br)c(=O)[nH]c2=O)C[C@@H]1O [Example 22, 5'-O-Benzyloxycycarbonyl-5-(E-2-bromovinyl)-2'-deoxyuridine] | 100 | 0.05 | – | > 100 | – | – | –
21 | CCCCOC(=O)OC[C@H]1O[C@@H](n2cc(/C=C/Br)c(=O)[nH]c2=O)C[C@@H]1O [Example 15, 5-(E-2-Bromovinyl)-5'-0-n-butoxycarbonyl-2'-deoxyuridine] | 600 | 0.25 | – | > 100 | – | – | –
22 | C=Cc1cn([C@H]2C[C@H](O)[C@@H](COC(=O)OCC)O2)c(=O)[nH]c1=O [Example 27, 2^1-Deoxy-5^1-O-ethoxycarbonyl-5-vinyluridine] | 4600 | 1.5 | – | > 100 | – | – | –
23 | CC(C)(C)OC(=O)OC[C@H]1O[C@@H](n2cc(/C=C/Br)c(=O)[nH]c2=O)C[C@@H]1OC(=O)OC(C)(C)C [Example 19, 5-(E-2-Bromovinyl)-3',5'-bis-O-t-butoxycarbonyl-2^1-deoxyuridine] | 3800 | 2 | – | > 100 | – | – | –
24 | CCOC(=O)OC[C@H]1O[C@@H](n2cc(/C=C/Br)c(=O)[nH]c2=O)C[C@@H]1OC(=O)CCC(=O)[O-].[Na+] | – | – | – | – | – | 6.3 | –
25 | CCOC(=O)OC[C@H]1O[C@@H](n2cc(/C=C/Br)c(=O)[nH]c2=O)C[C@@H]1OP(=O)(O)O [Example 13, 5-(E-2-Bromovinyl)-2'-deoxy-5'-0-ethoxycarbonyluridine 3'-Phosphate Monosodium Salt] | 7500 | 3.8 | > 100 | – | – | – | –
26 | CC(C)COC(=O)OC[C@H]1O[C@@H](n2cc(/C=C/Br)c(=O)[nH]c2=O)C[C@@H]1OC(=O)OCC(C)C [Example 16, 5-(E-2-Bromovinyl)-3',5'-bis-0-isobutoxycarbonyl-2'-deoxyuridine] | 800 | 0.44 | – | 100 | – | – | –
27 | CCOC(=O)OC[C@H]1O[C@@H](n2cc(/C=C/Br)c(=O)[nH]c2=O)C[C@@H]1OC(=O)OCC [Example 4, 5-(E-2-Bromovinyl)-2'-deoxy-3',5'-bis-0-ethoxycarbonyluridine] | 2300 | 1.1 | – | > 100 | – | – | –
28 | CCCCC(=O)O[C@H]1C[C@H](n2cc(/C=C/Br)c(=O)[nH]c2=O)O[C@@H]1COC(=O)OCC [Example 9, 5-(E-2-Bromovinyl)-2'-deoxy-5'-O-ethoxyarbonyl-3'-O-valeryluridine] | 3000 | 1.5 | – | > 100 | – | – | –
